Assay results as given in US7713994B2 (Wyeth LLC, priority 2005, dated 2010).
Read-outs that look alike come from different tables or passages of the source.

Key:
BT474 = test: Cytotoxicity assay (SRB), BT474; format: cell-based; details: BT474 cells, SRB, 6 days, read-out: In Vitro Cellular Activity IC50 BT474
Procedure, shortened: (§1)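 Cells grown in RPMI 1640 with 5% FBS were treated with compound for three days (HCT-116, LoVo, MCF-7) or six days (BT474). Viable cell mass was quantified by sulforhodamine B staining of TCA-fixed protein and read at 540 nm.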

LoVo = test: Cytotoxicity assay (SRB), LoVo; format: cell-based; details: LoVo cells, SRB, three days, read-out: In Vitro Cellular Activity IC50 LOVO
Procedure, shortened: as §1

cyclin D1/cdk 4 enzyme = target: T1, cyclin D1/cdk 4 enzyme (Homo sapiens, UniProt P11802); test: CDK4 ELISA kinase assay (phospho-Rb ser 795 detection); format: biochemical; details: In Vitro Enzyme Assays, 200 μM ATP, read-out: CDK4 IC50
T1 construct: made in house; host or cells: Sf9 insect cells, recombinant baculovirus
Procedure, shortened: (§2)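 ELISA format: plate-bound GST-Rb, 200 μM ATP, Sf9 cyclin/CDK enzyme, 1 h at 30° C; then anti-pRb Ser795 primary overnight at 4° C, HRP secondary, TMB. IC50 after no-substrate background subtraction.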

MCF-7 = test: Cytotoxicity assay (SRB), MCF-7; format: cell-based; details: MCF-7 cells, SRB, three days, read-out: In Vitro Cellular Activity IC50 MCF-7
Procedure, shortened: as §1

cyclin E/CDK2 enzyme = target: T2, cyclin E/CDK2 enzyme (Homo sapiens, UniProt P24941); test: CDK2 ELISA kinase assay (phospho-Rb ser 795 detection); format: biochemical; details: In Vitro Enzyme Assays, read-out: CDK2 IC50
T2 construct: made in house; host or cells: Sf9 insect cells, recombinant baculovirus
Procedure, shortened: as §2

cyclin B/CDK1 enzyme = target: T3, cyclin B/CDK1 enzyme (Homo sapiens, UniProt P06493); test: CDK1 ELISA kinase assay (phospho-Rb ser 795 detection); format: biochemical; details: In Vitro Enzyme Assays, read-out: CDK1 IC50
T3 construct: purchased New England BioLabs; host or cells: Sf9 insect cells, recombinant baculovirus
Procedure, shortened: as §2

HCT-116 = test: Cytotoxicity assay (SRB), HCT-116; format: cell-based; details: HCT116 cells, SRB, three days, read-out: In Vitro Cellular Activity IC50 HCT116
Procedure, shortened: as §1

T1 sequence (P11802 whole entry, species assumed): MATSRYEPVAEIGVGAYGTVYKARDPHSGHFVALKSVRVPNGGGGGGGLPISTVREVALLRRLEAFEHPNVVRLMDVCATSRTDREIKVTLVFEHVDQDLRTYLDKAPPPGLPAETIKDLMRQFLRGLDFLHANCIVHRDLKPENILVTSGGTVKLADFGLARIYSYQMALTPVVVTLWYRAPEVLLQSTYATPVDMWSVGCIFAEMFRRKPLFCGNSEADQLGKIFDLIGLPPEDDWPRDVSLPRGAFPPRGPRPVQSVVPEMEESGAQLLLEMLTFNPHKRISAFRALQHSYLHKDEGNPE
T1 sequence (P24385 whole entry partner, species assumed): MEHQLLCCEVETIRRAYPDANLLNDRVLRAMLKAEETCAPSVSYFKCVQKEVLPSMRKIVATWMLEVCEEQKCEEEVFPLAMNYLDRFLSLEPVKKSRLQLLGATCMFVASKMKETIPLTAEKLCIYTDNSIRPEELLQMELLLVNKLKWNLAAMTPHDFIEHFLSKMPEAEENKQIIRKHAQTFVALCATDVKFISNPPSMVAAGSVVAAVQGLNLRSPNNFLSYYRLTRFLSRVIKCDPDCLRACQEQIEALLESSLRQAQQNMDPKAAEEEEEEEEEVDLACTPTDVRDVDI
T3 sequence (P06493 whole entry): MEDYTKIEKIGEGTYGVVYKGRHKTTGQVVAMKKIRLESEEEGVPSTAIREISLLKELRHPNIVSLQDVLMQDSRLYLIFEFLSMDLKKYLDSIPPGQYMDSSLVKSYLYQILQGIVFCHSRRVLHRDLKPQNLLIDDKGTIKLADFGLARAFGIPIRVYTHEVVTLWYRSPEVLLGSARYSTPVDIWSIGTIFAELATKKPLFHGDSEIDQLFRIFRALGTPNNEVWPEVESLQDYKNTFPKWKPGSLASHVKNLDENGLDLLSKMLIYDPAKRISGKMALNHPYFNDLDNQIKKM
T3 sequence (P14635 whole entry partner): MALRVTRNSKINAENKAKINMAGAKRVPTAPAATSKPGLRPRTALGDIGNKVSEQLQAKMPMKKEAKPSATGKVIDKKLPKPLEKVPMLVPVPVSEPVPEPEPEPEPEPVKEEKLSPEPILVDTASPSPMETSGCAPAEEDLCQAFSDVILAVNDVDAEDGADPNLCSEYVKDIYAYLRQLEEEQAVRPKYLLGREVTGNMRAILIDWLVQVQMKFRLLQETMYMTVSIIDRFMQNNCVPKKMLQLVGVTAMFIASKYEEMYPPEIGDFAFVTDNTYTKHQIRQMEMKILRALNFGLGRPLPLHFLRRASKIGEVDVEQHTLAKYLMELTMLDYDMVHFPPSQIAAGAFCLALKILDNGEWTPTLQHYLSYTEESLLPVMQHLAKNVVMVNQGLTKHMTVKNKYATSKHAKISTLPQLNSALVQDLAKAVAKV

Row | SMILES | IC50 (BT474; Homo sapiens, BT-474, 144 h) [µM] | IC50 (LoVo; Homo sapiens, LoVo, 72 h) [µM] | IC50 (cyclin D1/cdk 4 enzyme) [µM] | IC50 (MCF-7; Homo sapiens, MCF7, 72 h) [µM] | IC50 (cyclin E/CDK2 enzyme) [µM] | IC50 (cyclin B/CDK1 enzyme) [µM] | IC50 (HCT-116; Homo sapiens, HCT-116, 72 h) [µM] | IC50 (BT474) [µM] | IC50 (LoVo) [µM] | IC50 (MCF-7) [µM] | IC50 (HCT-116) [µM]
1 | CCCOc1ccc(CN/C=C2\C(=O)NC(=O)c3ccc(-c4ccc(F)c(F)c4)cc32)cc1O [Example 194, (4Z)-6-(3,4-Difluorophenyl)-4-{[(3-hydroxy-4-propoxybenzyl)amino]methylene}-isoquinoline-1,3(2H,4H)-dione] | > 50 | > 50 | 15.8 | 9.1 | > 50 | > 50 | > 50 |  |  |  | 
2 | CCCOc1cc(O)cc(CN/C=C2\C(=O)NC(=O)c3ccc(Br)cc32)c1 [Example 195] | 17 | 37 | 2 | 14 | > 50 | > 50 | 6.9 |  |  |  | 
3 | CN1CCN(c2ccc(N/C=C3\C(=O)NC(=O)c4ccc(NC(=O)Cc5cccs5)cc43)cc2)CC1 [Example 198, 1,2,3,4-Tetrahydroisoquinolin-6-yl]-2-thien-2-ylacetamide ′N-[(4Z)-4-({[4-(4-methylpiperazin-1-yl)phenyl]amino}methylene)-1,3-dioxo] |  |  | 3.1 |  | 22.1 | 12 |  | 4.3 | 3.7 | 4.3 | 1.8
4 | O=C1NC(=O)c2ccc(-c3ccsc3)cc2/C1=C/NCc1ccc(OC(F)F)c(O)c1 [Example 200, (4Z)-4-({[4-(Difluoromethoxy)-3-hydroxybenzyl]amino}methylene)-6-thien-3-ylisoquinoline-1,3(2H,4H)-dione] | 9.3 | 4.7 | 0.009 | 7.2 | 26.5 | > 50 | 5.4 |  |  |  | 
5 | COc1ccc(C(=O)NN/C=C2\C(=O)NC(=O)c3ccc(Br)cc32)cc1O [Example 202, N′-[(Z)-(6-Bromo-1,3-dioxo-2,3-dihydroisoquinolin-4(1H)-ylidene)methyl]-3-hydroxy-4-methoxybenzohydrazide] | 18 | > 50 | 33.2 | > 50 | > 50 | > 50 | > 50 |  |  |  | 
6 | C[C@@H]1CN(c2ccc(N/C=C3\C(=O)NC(=O)c4ccc(-c5ccc(F)cc5)cc43)cc2)C[C@H](C)N1 [Example 205, (4Z)-4-({[4-(3,5-Dimethylpiperazin-1-yl)phenyl]amino}methylene)-6-(4-fluorophenyl)-isoquinoline-1,3(2H,4H)-dione] | 2.4 | 3.1 | 0.44 | 1.5 | 48.6 | 31 | 1.1 |  |  |  | 
7 | C[C@@H]1CN(c2ccc(N/C=C3\C(=O)NC(=O)c4ccc(-c5ccsc5)cc43)cc2)C[C@H](C)N1 [Example 206, (4Z)-4-({[4-(3,5-Dimethylpiperazin-1-yl)phenyl]amino}methylene)-6-thien-3-ylisoquinoline-1,3(2H,4H)-dione] | 2.9 | 7.4 | 0.16 | 3.7 | > 50 | 41.9 | 1.6 |  |  |  | 
8 | C[C@@H]1CN(c2ccc(N/C=C3\C(=O)NC(=O)c4ccc(-c5ccoc5)cc43)cc2)C[C@H](C)N1 [Example 207, (4Z)-4-({[4-(3,5-Dimethylpiperazin-1-yl)phenyl]amino}methylene)-6-(3-furyl)iso-quinoline-1,3(2H,4H)-dione] | 0.79 | 2.2 | 0.2 | 0.69 | > 50 | > 50 | 1.1 |  |  |  | 
9 | COc1ccc(CN/C=C2\C(=O)NC(=O)c3ccc(-c4ccc(F)cc4)cc32)cc1O [Example 208, (4Z)-6-(4-Fluorophenyl)-4-{[(3-hydroxy-4-methoxybenzyl)amino]methylene}iso-quinoline-1,3(2H,4H)-dione] | 8.2 | 15 | 0.009 | 3.4 | 30.3 | > 50 | 5.7 |  |  |  | 
10 | COc1ccc(CN/C=C2\C(=O)NC(=O)c3ccc(-c4cccc(F)c4)cc32)cc1O [Example 209, (4Z)-6-(3-Fluorophenyl)-4-{[(3-hydroxy-4-methoxybenzyl)amino]methylene}iso-quinoline-1,3(2H,4H)-dione] | 9.4 | 15 | 0.01 | 5.4 | 9.2 | > 50 | 7 |  |  |  | 
11 | COc1c(O)cc(CN/C=C2\C(=O)NC(=O)c3ccc(Br)cc32)cc1O [Example 210, (4Z)-6-Bromo-4-{[(3,5-dihydroxy-4-methoxybenzyl)amino]methylene}isoquinoline-1,3(2H,4H)-dione] | 13 | 10 | 0.008 | 6.6 | 2.1 | 18.9 | 10 |  |  |  | 
12 | O=C1NC(=O)c2ccc(Br)cc2/C1=C/NCCCCO [Example 211, (4Z)-6-Bromo-4-{[(4-hydroxybutyl)amino]methylene}isoquinoline-1,3(2H,4H)-dione] | 29 | 48 | 2.5 | 24 | 20.2 | 38 | 27 |  |  |  | 
13 | CCCOc1cc(CN/C=C2\C(=O)NC(=O)c3ccc(Br)cc32)cc(O)c1OCCC [Example 212, (4Z)-6-Bromo-4-{[(3-hydroxy-4,5-dipropoxybenzyl)amino]methylene}isoquinoline-1,3(2H,4H)-dione] | 47 | 30 | 0.77 | 37 | > 50 | > 50 | 25 |  |  |  | 
14 | CC(=O)Nc1cc(CN/C=C2\C(=O)NC(=O)c3ccc(Br)cc32)cc(O)c1O [Example 213] | > 50 | 48 | 0.19 | > 50 | > 50 | > 50 | > 50 |  |  |  | 
15 | O=C1NC(=O)c2ccc(Br)cc2/C1=C/Nc1ccc2c(c1)CCN2 [Example 214, (4Z)-6-Bromo-4-[(2,3-dihydro-1H-indol-5-ylamino)methylene]isoquinoline-1,3(2H,4H)-dione] | 6.8 | > 50 | 17.6 | 14 | 6.3 | > 50 | 39 |  |  |  | 
16 | COc1cc(CN/C=C2\C(=O)NC(=O)c3ccc(Br)cc32)ccn1 [Example 222, (4Z)-6-Bromo-4-({[(2-methoxypyridin-4-yl)methyl]amino}methylene)isoquinoline-1,3(2H,4H)-dione] | 13 | 19 | 31.7 | 13 | 6.1 | > 50 | 14 |  |  |  | 
17 | CC1(C)Oc2cc(CN/C=C3\C(=O)NC(=O)c4ccc(Br)cc43)cc(O)c2O1 [Example 224, (4Z)-6-Bromo-4-({[(7-hydroxy-2,2-dimethyl-1,3-benzodioxol-5-yl)methyl]amino}methylene)isoquinoline-1,3(2H,4H)-dione] | 9.6 | 7.9 | 0.17 | 7.4 | 4 | 45.5 | 6.4 |  |  |  | 
18 | O=C1NC(=O)c2ccc(Br)cc2/C1=C/NCc1cc[nH]c(=O)c1 [Example 225, (4Z)-6-Bromo-4-({[(2-oxo-1,2-dihydropyridin-4-yl)methyl]amino}methylene)isoquinoline-1,3(2H,4H)-dione] | 19.5 | > 50 | 0.56 | > 50 | 2.7 | > 50 | > 50 |  |  |  | 
19 | CN(C)CCSc1ccc(N/C=C2\C(=O)NC(=O)c3ccc(Br)cc32)cc1 [Example 229, (4Z)-6-Bromo-4-{[(4-{[2-(dimethylamino)ethyl]thio}phenyl)amino]methylene}isoquinoline-1,3(2H,4H)-dione] | 4 | 8.5 | 0.24 | 4.6 | > 50 | > 50 | 3.6 |  |  |  | 
20 | CN(C)CCN(C)c1ccc(N/C=C2\C(=O)NC(=O)c3ccc(Br)cc32)cc1 [Example 231, (4Z)-6-Bromo-4-[({4-[[2-(dimethylamino)ethyl](methyl)amino]phenyl}amino)methylene]isoquinoline-1,3(2H,4H)-dione] | 8.3 | 10 | 3.6 | 2.4 | > 50 | 29.6 | 4.1 |  |  |  | 
